The conditions of data set [1]: after olive oil consumption, literature; cited from earlier work.
The next data set relates to HepG2 liver cancer tumor. The experiment in a line: HepG2 xenograft mouse model. Format: in vivo, nu/nu mice. The following applies: 20 mg/kg i.p. every 5 days, until 20 days post-treatment. The procedure: The effect of GS27 on liver cancer tumor growth in mice was evaluated in a HepG2 xenograft mouse model. HepG2 is a human liver cancer cell line, obtained from ATCC (cat. No HB-8065). Since hepatocellular carcinoma is often treated with the chemotherapeutic agent doxorubicin and embolization, results were compared to those obtained with doxorubicin.
Xenograft tumors were generated by injecting HepG2 liver cancer cells (2.5×10^6) into the right flank of female nu/nu mice (Charles River Laboratories). All mice developed tumors in 10 days with size of approximately 100 mm3. For each experiment, mice were randomly distributed into equal groups (4 mice per group) that were untreated, or treated by intraperitoneal injections every 5 days with 20 mg/kg GS27 or doxorubicin. Tumor volume (average, SD) was evaluated until 20 days post-treatment.

Data set [2] deals with LNCaP prostate cancer cells. Conditions: literature; cited from earlier work.
In a further data set the target is ACLY (Homo sapiens, UniProt P53396). The following applies: description of the Tocris compound; read-out: IC50 as ACLY inhibitor; cited from earlier work.
A short description of data set [3]: Deoxyribose degradation assay (hydroxyl radical scavenging). Type of data set: biochemical. Conditions: NS = not statistically significant. The gist of the method:
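Hydroxyl radicals from Fenton's reaction degrade 2-deoxyribose. Scavenging is measured as inhibition of this oxidation, read spectrophotometrically as pink chromogen absorbance at 532 nm.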

Data set [4] relates to MCF-7 ER+ breast cancer cells. Put plainly: XTT cell growth assay, MCF-7 ER+. Format: cell-based, human. Conditions: NS = not statistically significant. The method in brief: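 MCF-7 ER+ cells grown 24 h in DMEM, then given 5, 10 or 50 μM compound in serum-free DMEM for 24 h. XTT reagent added for 4 h. Absorbance read at 450 nm with 630 nm reference; serum-free DMEM alone as negative control.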

For a further data set, the system named is pACLY (S455). The experiment in a line: ELISA of pACLY (S455) / ACLY enzymatic activity in PANC-1 cells. Format: cell-based, human. Conditions: 5 μM. The procedure: ELISA assay was used to evaluate the effect of GS compounds on protein activity levels in PANC-1 cancer cells. PANC-1 cells were serum-starved overnight and then treated with rIGF1 (100 ng/mL) for 24 hours, with or without GS27 (5 μM). The levels of the following proteins were evaluated by ELISA assay: a) p70 S6 (T389) (cat no. 54164C, Cell Signaling); b) pAKT (S473), (cat no. 80895, Cell Signaling); c) pACLY (S455), (cat no. okag1672, Avivasysbio); d) pAMPK (T172) (cat no. 7959C, Cell Signaling) and e) p65/NFKB (S536), (cat no. 7173, Cell Signaling).
PANC-1 is a human pancreatic ductal adenocarcinoma cell line derived from the carcinoma of a person.
The molecular mechanism of action of GS27, a compound that has exerted potent anti-cancer activity in different cancer cell lines including pancreatic cancer cells, was investigated. Oleacein has been implicated to have anti-inflammatory and metabolic effects, thus the potential effects of GS27 in different metabolic and inflammatory pathways were evaluated. Specifically, the protein levels of p70 S6 (T389), pAKT (S473), pACLY (S455), pAMPK (T172) and p65/NFKB (S536) were evaluated by ELISA assay in PANC-1 pancreatic cancer cells treated with 5 μM GS27. GS27 reduced p70 S6 and AKT phosphorylation levels, while it increased AMPK phosphorylation.
The effects of different GS compounds on ACLY enzymatic activity were evaluated by ELISA assay in PANC-1 pancreatic cancer cells. […] This finding is unexpected, since GS21 has a very similar structure with GS27, with the only difference being the presence of an oxygen atom in ester GS21 instead of a sulfur atom in thioester GS27.

The next data set relates to IL-1β. The experiment in a line: ELISA of IL-1β in PMA/LPS-treated THP-1 cells. The following applies: THP-1, PMA then LPS 100 ng/ml 24 hours, 5 uM compound added 2 hours before LPS. Type of data set: cell-based, human. The protocol:
(§1) Human monocytes (THP-1, ATCC) were cultured in RPMI 1640 media supplemented with HEPES buffer (10 mM), sodium pyruvate (1 mM), glucose (4.5 g/L), fetal bovine serum (10%), penicillin (100 U/mL), streptomycin (100 μg/mL), and 2-mercaptoethanol (0.05 mM). THP-1 cells were treated with PMA (100 ng/ml) for 48 hours and then washed and rested for 24 hours in PMA-free media. These cells were treated with LPS (100 ng/ml) for 24 hours in the presence or absence of 5 uM of […] compounds (added 2 hours before LPS). Cell culture supernatants were collected and IL-1β (cat. No DLB50, R&D Systems), TNF-α (cat. no. DTA00D, R&D Systems) and IL-6 (cat. No D6050, R&D Systems) protein levels were evaluated by ELISA assay.
In general terms: An ELISA detects its analyte on a solid surface through an enzyme-linked reagent.

For a further data set, the system named is TNF-α. Put plainly: ELISA of TNF-α in PMA/LPS-treated THP-1 cells. Type of data set: cell-based, human. The following applies: THP-1, PMA then LPS 100 ng/ml 24 hours, 5 uM compound added 2 hours before LPS. The protocol:
as §1

A further data set relates to IL-6. The experiment in a line: ELISA of IL-6 in PMA/LPS-treated THP-1 cells. Type of data set: cell-based, human. Conditions: THP-1, PMA then LPS 100 ng/ml 24 hours, 5 uM compound added 2 hours before LPS. The protocol: as §1

In general, pIC50 refers to the negative decadic logarithm of the IC50, by convention in mol/L. By inhibition is commonly meant the change of the read-out against control, counted positive when it falls.

SMILES strings stand for the structures. pIC50: −log10 of the molar value.

Sequence of ACLY (P53396 whole entry): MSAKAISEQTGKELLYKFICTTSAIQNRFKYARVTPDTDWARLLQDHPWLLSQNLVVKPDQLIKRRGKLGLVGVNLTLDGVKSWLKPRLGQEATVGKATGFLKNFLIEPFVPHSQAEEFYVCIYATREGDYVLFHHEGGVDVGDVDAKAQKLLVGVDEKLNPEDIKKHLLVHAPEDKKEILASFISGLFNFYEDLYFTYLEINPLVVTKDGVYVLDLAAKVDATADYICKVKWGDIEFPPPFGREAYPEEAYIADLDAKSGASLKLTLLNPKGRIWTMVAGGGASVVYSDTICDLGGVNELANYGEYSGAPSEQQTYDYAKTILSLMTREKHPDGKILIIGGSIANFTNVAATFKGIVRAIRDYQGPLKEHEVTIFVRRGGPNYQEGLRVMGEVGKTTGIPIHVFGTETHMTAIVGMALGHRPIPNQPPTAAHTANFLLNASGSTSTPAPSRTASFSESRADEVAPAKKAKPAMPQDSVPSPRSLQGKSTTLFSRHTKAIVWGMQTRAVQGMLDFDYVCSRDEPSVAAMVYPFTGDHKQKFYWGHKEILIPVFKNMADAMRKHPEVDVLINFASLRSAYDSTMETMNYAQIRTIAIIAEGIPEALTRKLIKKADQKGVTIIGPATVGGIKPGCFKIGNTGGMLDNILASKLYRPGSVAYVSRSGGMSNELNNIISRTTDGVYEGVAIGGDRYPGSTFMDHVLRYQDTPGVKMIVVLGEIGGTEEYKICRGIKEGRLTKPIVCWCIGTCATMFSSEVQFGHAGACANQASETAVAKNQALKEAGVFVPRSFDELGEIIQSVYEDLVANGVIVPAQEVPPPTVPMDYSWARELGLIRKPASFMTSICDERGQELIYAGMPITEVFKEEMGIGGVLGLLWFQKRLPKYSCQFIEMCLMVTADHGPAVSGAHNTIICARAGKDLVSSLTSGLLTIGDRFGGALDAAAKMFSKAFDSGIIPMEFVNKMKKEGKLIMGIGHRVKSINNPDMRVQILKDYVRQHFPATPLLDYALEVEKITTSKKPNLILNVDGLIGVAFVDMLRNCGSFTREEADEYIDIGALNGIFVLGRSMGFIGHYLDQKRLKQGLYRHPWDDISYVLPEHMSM

Regarding `OCCc1ccc(O)c(O)c1` [Hydroxytyrosol], the “time of peak plasma levels after ingestion” value in [1] is reported as 1 h.

With `COc1cccc2c1C(=O)c1c(O)c3c(c(O)c1C2=O)C[C@@](O)(C(=O)CO)C[C@@H]3O[C@H]1C[C@H](N)[C@H](O)[C@H](C)O1` [doxorubicin, reference compound], the “reduction in the tumor size, HepG2 liver cancer” value with HepG2 liver cancer tumor is reported as 13%.

`OCCc1ccc(O)cc1` [tyrosol]: the “time of peak plasma levels after ingestion” value in data set [1] was 1 h.

With `CNC(=O)c1ccc(N2C(=S)N(c3ccc(C#N)c(C(F)(F)F)c3)C(=O)C2(C)C)cc1F` [enzalutamide], the “concentration found to reduce LNCaP prostate cancer cell growth” value in data set [2] is 10 µM.

Consider `COc1ccc(-c2ccccc2)cc1NS(=O)(=O)c1cc(Cl)cc(Cl)c1O` [BMS303141], for which the pIC50 on ACLY is 6.89.

As to `C/C=C(/C=O)[C@@H](CC=O)CC(=O)OCc1cc2ccccc2[nH]1` [GS25, (3S,4E)-4-formyl-3-(2-oxoethyl)-4-hexenoic acid (1H-indol-2-yl)methyl ester], the “Deoxyribose Degradation Assay IC50” value in data set [3] worked out at 16.2 μg extract/mL. Moreover, the “Effectiveness to suppress MCF7 cell growth (cell growth inhibition)” value in data set [4] (50 uM, 24 h) is on record as “best efficacy”. In [4] (Homo sapiens, MCF7, 24 h, read-out: Effectiveness to suppress MCF7 cell growth (cell growth inhibition)), the inhibition at 50 µM came out at 88.4%. Further, in the data set with pACLY (S455), the “ACLY enzymatic activity (ELISA)” value was “small effect”. Moreover, in the data set on IL-1β, the IL-1β protein levels result is on record as “reducing substantially”. The TNF-α protein levels entry in the data set on TNF-α is reported as “better effect on the suppression”. For the same compound, the IL-6 protein levels result in the data set on IL-6 was “effective for reducing”.

The record behind these values is patent US12414960B2, “Analogues of oleuropein and oleacein and uses thereof” (Attica Sciences Ltd., priority 2020, dated 2025).
